# Read-outs that look alike come from different tables or passages of the source. Square brackets hold non-standard residues; d marks the D form. Peptide text beside a SMILES is read from it. Cit = NC(=O)NCCC[C@H](N)C(=O)O
# What was measured:
# HLA-DRB1*01:01 = target: T1, HLA-DRB1*01:01 (Homo sapiens, UniProt P01903+P01911, A100R/D57E/F55L/F60I/F76Y/I96L/L162R/M171V/P40L/Q125E/R42F/V115G/Y59C); assay: HLA class II peptide binding, inhibition of radiolabeled peptide binding to purified MHC
# T1 construct: EBV transformed homozygous cell lines were used as sources of MHC molecules; endogenous in cells; host or cells: EBV transformed homozygous cell lines
# HLA-DRB1*04:01 = target: T2, HLA-DRB1*04:01 (Homo sapiens, UniProt P01903+P01911, A100K/A169T/F76Y/I96L/K127E/L162R/M171V/N62H/P40V/Q125Y/R42H/S133A/S149N/S66Y/V115G/V209L/W38E); assay: as above
# T2 construct: EBV transformed homozygous cell lines were used as sources of MHC molecules; endogenous in cells; host or cells: EBV transformed homozygous cell lines
# [1] = citrullinated 15-mer (X), purified MHC, inhibition of radiolabeled peptide binding, dash = IC50 >40,000 nM, read-out: DRB1*01:01 binding capacity, Cit peptide (IC50 nM)
# [2] = citrullinated 15-mer (X), purified MHC, inhibition of radiolabeled peptide binding, dash = IC50 >40,000 nM, read-out: DRB1*04:01 binding capacity, Cit peptide (IC50 nM)
# [3] = read-out: DRB1*01:01 binding capacity, WT peptide (IC50 nM)
# [4] = read-out: DRB1*04:01 binding capacity, WT peptide (IC50 nM)
SMILES,IC50 (HLA-DRB1*01:01; [1]),IC50 (HLA-DRB1*04:01; [2]),IC50 (HLA-DRB1*01:01; [3]),IC50 (HLA-DRB1*04:01; [4])
CSCC[C@H](NC(=O)[C@H](CCCNC(N)=O)NC(=O)[C@H](CCCNC(=N)N)NC(=O)[C@H](Cc1ccc(O)cc1)NC(=O)[C@H](CO)NC(=O)[C@H](CO)NC(=O)[C@H](CO)NC(=O)[C@H](CO)NC(=O)[C@@H](N)C(C)C)C(=O)N[C@@H](Cc1ccccc1)C(=O)NCC(=O)NCC(=O)N1CCC[C@H]1C(=O)NCC(=O)N[C@H](C(=O)O)[C@@H](C)O [VSSSSYRXMFGGPGT] (H-VSSSSYR[Cit]MFGGPGT-OH),60 nM,974 nM,,
CSCC[C@H](NC(=O)[C@H](CCCNC(=N)N)NC(=O)[C@H](CCCNC(N)=O)NC(=O)[C@H](Cc1ccc(O)cc1)NC(=O)[C@H](CO)NC(=O)[C@H](CO)NC(=O)[C@H](CO)NC(=O)[C@H](CO)NC(=O)[C@@H](N)C(C)C)C(=O)N[C@@H](Cc1ccccc1)C(=O)NCC(=O)NCC(=O)N1CCC[C@H]1C(=O)NCC(=O)N[C@H](C(=O)O)[C@@H](C)O [VSSSSYXRMFGGPGT] (H-VSSSSY[Cit]RMFGGPGT-OH),37 nM,906 nM,,
CC(C)C[C@H](NC(=O)[C@H](C)NC(=O)[C@H](CO)NC(=O)CNC(=O)[C@H](CC(C)C)NC(=O)[C@H](CO)NC(=O)[C@H](Cc1ccc(O)cc1)NC(=O)[C@@H](NC(=O)[C@H](CCCNC(=N)N)NC(=O)[C@@H](NC(=O)[C@H](CO)NC(=O)[C@@H](NC(=O)[C@@H](NC(=O)[C@@H](N)C(C)C)[C@@H](C)O)[C@@H](C)O)[C@@H](C)O)[C@@H](C)O)C(=O)N[C@@H](CCCNC(N)=O)C(=O)O [VTTSTRTYSLGSALX] (H-VTTSTRTYSLGSAL[Cit]-OH),9.6 nM,847 nM,,
CC(C)C[C@H](NC(=O)[C@H](C)NC(=O)[C@H](CO)NC(=O)CNC(=O)[C@H](CC(C)C)NC(=O)[C@H](CO)NC(=O)[C@H](Cc1ccc(O)cc1)NC(=O)[C@@H](NC(=O)[C@H](CCCNC(N)=O)NC(=O)[C@@H](NC(=O)[C@H](CO)NC(=O)[C@@H](NC(=O)[C@@H](NC(=O)[C@@H](N)C(C)C)[C@@H](C)O)[C@@H](C)O)[C@@H](C)O)[C@@H](C)O)C(=O)N[C@@H](CCCNC(=N)N)C(=O)O [VTTSTXTYSLGSALR] (H-VTTST[Cit]TYSLGSALR-OH),7.2 nM,1480 nM,,
CC[C@H](C)[C@H](NC(=O)[C@H](CCCCN)NC(=O)[C@H](CC(N)=O)NC(=O)[C@H](CCC(N)=O)NC(=O)[C@H](CCC(N)=O)NC(=O)[C@H](CCC(=O)O)NC(=O)[C@H](CC(C)C)NC(=O)[C@H](Cc1ccccc1)NC(=O)[C@H](CCCNC(N)=O)NC(=O)[C@@H](N)C(C)C)C(=O)N[C@@H](CC(C)C)C(=O)N[C@@H](CC(C)C)C(=O)N[C@@H](C)C(=O)N[C@@H](CCC(=O)O)C(=O)N[C@@H](CC(C)C)C(=O)O [VXFLEQQNKILLAEL],7.8 nM,6590 nM,,
CC(C)C[C@H](NC(=O)[C@H](C)NC(=O)[C@H](CO)NC(=O)CN)C(=O)N[C@@H](CCCNC(=N)N)C(=O)N1CCC[C@H]1C(=O)N[C@@H](CO)C(=O)N[C@H](C(=O)N[C@@H](CO)C(=O)N[C@@H](CCCNC(=N)N)C(=O)N[C@@H](CO)C(=O)N[C@@H](CC(C)C)C(=O)N[C@@H](Cc1ccc(O)cc1)C(=O)N[C@@H](C)C(=O)N[C@@H](CO)C(=O)O)[C@@H](C)O [Vimentin 41 WT],,,3.4 nM,860 nM
CC(C)C[C@H](NC(=O)[C@H](CO)NC(=O)[C@H](CCCNC(=N)N)NC(=O)[C@H](CO)NC(=O)[C@@H](NC(=O)[C@H](CO)NC(=O)[C@@H]1CCCN1)[C@@H](C)O)C(=O)N[C@@H](Cc1ccc(O)cc1)C(=O)N[C@@H](C)C(=O)N[C@@H](CO)C(=O)N[C@@H](CO)C(=O)N1CCC[C@H]1C(=O)NCC(=O)NCC(=O)N[C@H](C(=O)O)C(C)C [Vimentin 46 WT],,,290 nM,1050 nM
CC(C)C[C@H](NC(=O)[C@@H](N)CO)C(=O)N[C@@H](Cc1ccc(O)cc1)C(=O)N[C@@H](C)C(=O)N[C@@H](CO)C(=O)N[C@@H](CO)C(=O)N1CCC[C@H]1C(=O)NCC(=O)NCC(=O)N[C@H](C(=O)N[C@@H](Cc1ccc(O)cc1)C(=O)N[C@@H](C)C(=O)N[C@H](C(=O)N[C@@H](CCCNC(=N)N)C(=O)N[C@@H](CO)C(=O)O)[C@@H](C)O)C(C)C [Vimentin 51 WT],,,75 nM,6110 nM
CC(C)C[C@H](NC(=O)[C@H](CO)NC(=O)[C@H](Cc1ccccc1)NC(=O)[C@H](CC(=O)O)NC(=O)[C@@H](NC(=O)[C@H](CO)NC(=O)[C@H](CC(=O)O)NC(=O)[C@H](CCC(N)=O)NC(=O)[C@H](CC(C)C)NC(=O)[C@H](CC(C)C)NC(=O)[C@H](CCCNC(=N)N)NC(=O)[C@@H](NC(=O)CN)C(C)C)C(C)C)C(=O)N[C@@H](C)C(=O)N[C@@H](CC(=O)O)C(=O)O [Vimentin 76 WT],,,358 nM,596 nM

# Source: paper PMC5421785, “Citrullination only infrequently impacts peptide binding to HLA class II MHC” (PLoS ONE, 2017)
